In patent US7485434B2, “Method for screening compounds for those that modulate transducers of regulated CREB activity” (The Salk Institute for Biological Studies, priority 2005, dated 2009):

How the values were obtained:
[1] = system: gluconeogenic genes (PEPCK, PGC-1α, G6Pase); assay: Q-PCR of gluconeogenic gene expression in primary rat hepatocytes; assay type: cell-based; conditions: primary hepatocytes
Method: Specifically, FIG. 17A illustrates the effect of TORC2 on induction of gluconeogenic genes (PEPCK, PGC-1α, G6Pase) by FSK (10 μM, 2 hr) in cultured primary rat hepatocytes infected with TORC2 or control GFP adenovinus as indicated.
FIGS. 18A-18H illustrate that the induction of the AMP kinase family member SIK1 by CREB during fasting attenuates the gluconeogenic program. Specifically, FIG. 18A illustrates the time course of PEPCK gene expression in primary rat hepatocytes following exposure to FSK. mRNA levels were determined by Q-PCR analysis.
FIG. 18C illustrates the effect of CHX pretreatment on induction of gluconeogenic genes (PEPCK, PGC-1α, G6Pase) by glucagon in primary rat hepatocytes. Relative mRNA levels are shown.
FIG. 19B summarizes the effect of SIK1 RNAi on gluconeogenic gene expression in primary rat hepatocytes, presenting Q-PCR analysis showing the relative induction of PEPCK, PGC-1α, and G6Pase mRNAs by glucagon in cells infected with control (US) or SIK1 RNAi expressing adenoviruses.
FIG. 20D summarizes the effect of AlCAR on expression of gluconeogenic genes (PEPCK, PGC-1α) in primary rat hepatocytes. Cells infected with mutant Ser171Ala TORC2 (171) adenovinus indicated. Treatment with AICAR and FSK is shown.
Rat primary hepatocytes were prepared from 200-300g of Sprague-Dawley rats by collagenase perfusion method as described previously (see Koo et al., 2004). […]

TORC2 [2] = assay: TORC2 phosphorylation in primary rat hepatocytes (Western blot); assay type: cell-based; conditions: primary hepatocytes; AICAR 1 mM, in the presence of FSK, 30 minutes
Source text: FIG. 18B illustrates the effect of CHX on levels of phospho (Ser171) TORC2 in primary rat hepatocytes treated with glucagon over a variety of time points, shown in hours. Western blot assay indicates the levels of TORC2, phospho (Ser171) TORC2 and CREB.
Specifically, FIG. 19A, top, presents a Western blot showing the effect of US and SIK1 RNAi adenoviruses on the levels of SIK1 protein in rat hepatocytes. FIG. 19A, bottom, presents a Western blot assay with nondiscriminating TORC2 antiserum, showing the effect of SIK1 RNAi adenovirus on TORC2 dephosphorylation (compare P-TORC2 and TORC2 bands) following exposure of primary rat hepatocytes to glucagon (Gluc). The arrow identifies phosphorylated TORC2.
Cells were exposed to AICAR and FSK for 30 minutes. Lower mobility bands (arrow) indicate phosphorylated TORC2 polypeptides.
Rat primary hepatocytes were prepared from 200-300g of Sprague-Dawley rats by collagenase perfusion method as described previously (see Koo et al., 2004). 1×10^6 cells were plated in 6 well plates with medium 199 (Invitrogen, Carlsbad, Calif.) supplemented by 10% FBS, 10 units/ml penicillin, 10 μg/ml streptomycin, and 10 nM dexamethasone for 3-6 hours. After attachment, cells were infected with adenoviruses for 16 hours. Subsequently, cells were maintained in medium 199 without FBS and dexamethasone for 24 hours (for cDNA expression adenoviruses) or 48 hours (for RNAi adenoviruses) and […] forskolin or 100 nM glucagon for 2 hours unless noted otherwise. For experiments with cycloheximide, 10 μg/ml cycloheximide was added 30 minutes prior to the addition of 100 nM glucagon.
Like other signaling pathways, cAMP stimulates gluconeogenic gene expression with burst-attenuation kinetics (see Sasaki et al., 1984). Following exposure of primary hepatocytes to Forskolin, PEPCK mRNA levels became maximal after 2 hours, returning to near baseline after 4 hours (see FIG. 18A). […] Consistent with this, CHX pre-treatment potentiated gluconeogenic gene expression in primary rat hepatocytes exposed to glucagon 2-3 fold (see FIG. 18C). […]

TORC2 [3] = assay: Cellular localization of TORC2 in primary rat hepatocytes; assay type: cell-based; conditions: wild-type or Ser171Ala TORC2
Method: FIG. 20C illustrate the effect of AICAR and SIK1 on cellular localization of wild-type or Ser171 Ala TORC2 in primary rat hepatocytes. Cells were infected with adenoviruses for HA-tagged wild-type or mutant TORC2 and SIK1 as indicated. Infected cells were exposed to FSK and AICAR for 30 minutes. TORC2 localization was examined with anti-HA antiserum. Cells were counterstained with DAP1 to visualize nuclei.
Based on its ability to promote Ser171 phosphorylation, AMPK might be expected to inhibit nuclear entry of TORC2 in cells exposed to FSK. […] Confirming the pivotal role of Ser171 in this regard, mutant Ser171Ala TORC2 remained constitutively nuclear under both conditions.

AMPK = conditions: cited from earlier work

SMILES	effect on induction of PEPCK and PGC-1α genes in response to FSK [1]	phosphorylation of endogenous TORC2 (TORC2 [2])	effect on nuclear entry of TORC2 in cells exposed to FSK (TORC2 [3])	effect on AMPK (AMPK)
NC(=O)c1ncn([C@@H]2O[C@H](CO)[C@@H](O)[C@H]2O)c1N [AICAR, 5-aminoimidazole-4-carboxamide riboside]	blocked induction of PEPCK and PGC-1α genes	triggered robust phosphorylation of endogenous TORC2	inhibited nuclear entry of wild-type, but not SerAla171 TORC2	
CN(C)C(=N)N=C(N)N [metformin]				activates AMPK
